According to patent US20240325398A1, “COMBINATION THERAPIES” (Infinity Pharmaceuticals, Inc., priority 2014, published 2024):

What was measured:
SU-DHL-4-epst = assay: Combination study, ATPLite 72 h, dose matrix (Synergy Score, CI50)
Experimental: Cells are thawed from a liquid nitrogen preserved state. Once cells have been expanded and divide at their expected doubling times, screening begins. Cells are seeded in growth media in either black 1536-well or 384-well tissue culture treated plates. Cells are then equilibrated in assay plates via centrifugation and placed in incubators attached to the Dosing Modules at 37° C. for 24 hours before treatment. […] These Tzero (To) plates are read using ultra-sensitive luminescence on Envision plate readers (Perkin Elmer). Treated assay plates are incubated with compound for 72 hours. After 72 hours, plates are developed for endpoint analysis using ATPLite. All data points are collected via automated processes, quality controlled and analyzed using Zalicus software.
The measure of effect in the experiment can be the inhibition of cellular response relative to the untreated level (vehicle alone). […] The inhibition ranges from 0% at the untreated level to 100% when T=0. Inhibition levels are negative for agents that actually increase levels.
Growth Inhibition (GI) is used as a measure of cell viability. […] A GI reading of 100% represents complete growth inhibition—T72 compound-treated and T0 vehicle signals are matched. […] A GI reading of 200% represents complete death of all cells in the culture well. Compounds reaching an activity plateau of GI 200% are considered cytotoxic. GI is calculated by applying the following test and equation:
Combination analysis data were collected in a 6×6 dose matrix. Synergy is calculated by comparing a combination's response to those of its single compound, against the drug-with-itself dose-additive reference model. Deviations from dose additivity may be assessed visually on an isobologram or numerically with a Combination Index (CI). […] Additive effect is CI=1.0. […] Antagonistic effect is CI>1.0.
To measure combination effects in excess of Loewe additivity, a scalar measure to characterize the strength of synergistic interaction termed the Synergy Score is devised. The Synergy Score is calculated as:
The fractional inhibition for each component agent and combination point in the matrix is calculated relative to the median of all vehicle-treated control wells. The Synergy Score equation integrates the experimentally-observed activity volume at each point in the matrix in excess of a model surface numerically derived from the activity of the component agents using the Loewe model for additivity. Additional terms in the Synergy Score equation (above) are used to normalize for various dilution factors used for individual agents and to allow for comparison of synergy scores across an entire experiment. The inclusion of positive inhibition gating or an Idata multiplier removes noise near the zero effect level, and biases results for synergistic interactions at that occur at high activity levels.
Loewe Volume (Loewe Vol) is used to assess the overall magnitude of the combination interaction in excess of the Loewe additivity model. Loewe Volume is particularly useful when distinguishing synergistic increases in a phenotypic activity (positive Loewe Volume) versus synergistic antagonisms (negative Loewe Volume). […] This model defines additivity as a non-synergistic combination interaction where the combination dose matrix surface should be indistinguishable from either drug crossed with itself. The calculation for Loewe additivity is:

SU-DHL-10-epst = assay: as above
SUDHL6 = assay: Compound 1 with dexamethasone, CellTiter-Glo viability 72 h, combination index; type: cell-based; conditions: SUDHL6
Experimental: The effects of Compound 1 with dexamethasone were examined in a panel of cell lines. Cells were cultured and assayed as follows. Compound 1 was serially diluted with cell culture medium and various DMSO concentrations. The top concentration of Compound 1 exposed to cells was 3 uM for cell lines other than WSU-NHL and DOHH2. For WSU-NHL and DOHH2 cell lines, the top concentration of Compound 1 exposed to the cells was 0.3 uM. Dexamethasone was serially diluted in culture media and phosphate buffered saline (PBS). The top concentration of dexamethasone used on cells was 3 uM. Cells were at least 73% viable and were counted and diluted for plating at a density of about 92,000 cell/mL, 130 uL cells per well in 96 well plates for SUDHL6, Karpas 422, SUDHL4, WSU-NHL, RL, and DOHH2 cell lines. The SUDHL10 cell line was plated at a density of about 46,000 cells/mL, 130 uL cells per well in 96 well plates.
Various concentrations of Compound 1 and various combinations of dexamethasone were added to various wells of cells. Single agents (Compound 1 or dexamethasone alone) were also added to some wells of cells. Cells were incubated with compounds for 72 hours. To assay for effects of the compounds on cell viability, a CellTiter-Glo® luminescent cell viability assay (commercially available) was used. To each plate of cells, 100 uL CellTiter-Glo reagent was added, incubated, and luminescence quantified using a […].
The result for cell line SUDHL6 is depicted in FIG. 12 and in Table 12. […] Table 12 depicts combination index (CI) values for different combinations of dexamethasone/Compound 1 concentrations.

DOHH-2 = assay: Combination study, ATPLite 72 h, dose matrix (Synergy Score, CI50)

Structure (SMILES): C[C@H](Nc1ncnc2[nH]cnc12)c1cc2cccc(Cl)c2c(=O)n1-c1ccccc1 [Compound 1, (S)-3-(1-((9H-purin-6-yl)amino)ethyl)-8-chloro-2-phenylisoquinolin-1(2H)-one]
- CI50 inhibition (SU-DHL-4-epst; combination with PCI-32765): S (S=0.01 to <0.5)
- Synergy Score growth inhibition (SU-DHL-4-epst; combination with PCI-32765): A3 (A3=>3)
- Synergy Score inhibition (SU-DHL-4-epst; combination with PCI-32765): A3 (A3=>3)
- CI50 growth inhibition (SU-DHL-4-epst; combination with PD-0332991): S (S=0.01 to <0.5)
- CI50 inhibition (SU-DHL-4-epst; combination with PD-0332991): S (S=0.01 to <0.5)
- Synergy Score growth inhibition (SU-DHL-4-epst; combination with PD-0332991): A3 (A3=>3)
- Synergy Score inhibition (SU-DHL-4-epst; combination with PD-0332991): A2 (A2=1 to <3)
- CI50 growth inhibition (SU-DHL-10-epst; combination with Dexamethasone): S (S=0.01 to <0.5)
- CI50 inhibition (SU-DHL-10-epst; combination with Dexamethasone): S (S=0.01 to <0.5)
- Synergy Score growth inhibition (SU-DHL-10-epst; combination with Dexamethasone): A3 (A3=>3)
- Synergy Score inhibition (SU-DHL-10-epst; combination with Dexamethasone): A3 (A3=>3)
- CI50 growth inhibition (SU-DHL-10-epst; combination with LEE011): S (S=0.01 to <0.5)
- CI50 inhibition (SU-DHL-10-epst; combination with LEE011): S (S=0.01 to <0.5)
- Synergy Score growth inhibition (SU-DHL-10-epst; combination with LEE011): A3 (A3=>3)
- Synergy Score inhibition (SU-DHL-10-epst; combination with LEE011): A3 (A3=>3)
- CI50 growth inhibition (SU-DHL-10-epst; combination with PCI-32765): S (S=0.01 to <0.5)
- CI50 inhibition (SU-DHL-10-epst; combination with PCI-32765): S (S=0.01 to <0.5)
- Synergy Score growth inhibition (SU-DHL-10-epst; combination with PCI-32765): A3 (A3=>3)
- Synergy Score inhibition (SU-DHL-10-epst; combination with PCI-32765): A3 (A3=>3)
- CI50 growth inhibition (SU-DHL-10-epst; combination with PD-0332991): S (S=0.01 to <0.5)
- CI50 inhibition (SU-DHL-10-epst; combination with PD-0332991): S (S=0.01 to <0.5)
- Synergy Score growth inhibition (SU-DHL-10-epst; combination with PD-0332991): A3 (A3=>3)
- Synergy Score inhibition (SU-DHL-10-epst; combination with PD-0332991): A3 (A3=>3)
- combination index (CI) (SUDHL6; Compound 1 1.4 nM + Dexamethasone 1.4 nM): E (E = >1)
- combination index (CI) (SUDHL6; Compound 1 1.4 nM + Dexamethasone 4.1 nM): E (E = >1)
- combination index (CI) (SUDHL6; Compound 1 1.4 nM + Dexamethasone 12.3 nM): E (E = >1)
- combination index (CI) (SUDHL6; Compound 1 1.4 nM + Dexamethasone 37 nM): E (E = >1)
- combination index (CI) (SUDHL6; Compound 1 1.4 nM + Dexamethasone 111.1 nM): A (A = 0.0001 to <0.3)
- combination index (CI) (SUDHL6; Compound 1 1.4 nM + Dexamethasone 333.3 nM): A (A = 0.0001 to <0.3)
- combination index (CI) (SUDHL6; Compound 1 1.4 nM + Dexamethasone 1000 nM): A (A = 0.0001 to <0.3)
- combination index (CI) (SUDHL6; Compound 1 1.4 nM + Dexamethasone 3000 nM): A (A = 0.0001 to <0.3)
- combination index (CI) (SUDHL6; Compound 1 4.1 nM + Dexamethasone 1.4 nM): E (E = >1)
- combination index (CI) (SUDHL6; Compound 1 4.1 nM + Dexamethasone 4.1 nM): B (B = 0.3 to <0.5)
- combination index (CI) (SUDHL6; Compound 1 4.1 nM + Dexamethasone 12.3 nM): E (E = >1)
- combination index (CI) (SUDHL6; Compound 1 4.1 nM + Dexamethasone 37 nM): C (C = 0.5 to <0.7)
- combination index (CI) (SUDHL6; Compound 1 4.1 nM + Dexamethasone 111.1 nM): A (A = 0.0001 to <0.3)
- combination index (CI) (SUDHL6; Compound 1 4.1 nM + Dexamethasone 333.3 nM): A (A = 0.0001 to <0.3)
- combination index (CI) (SUDHL6; Compound 1 4.1 nM + Dexamethasone 1000 nM): A (A = 0.0001 to <0.3)
- combination index (CI) (SUDHL6; Compound 1 4.1 nM + Dexamethasone 3000 nM): A (A = 0.0001 to <0.3)
- combination index (CI) (SUDHL6; Compound 1 12.3 nM + Dexamethasone 1.4 nM): E (E = >1)
- combination index (CI) (SUDHL6; Compound 1 12.3 nM + Dexamethasone 4.1 nM): E (E = >1)
- combination index (CI) (SUDHL6; Compound 1 12.3 nM + Dexamethasone 12.3 nM): E (E = >1)
- combination index (CI) (SUDHL6; Compound 1 12.3 nM + Dexamethasone 37 nM): E (E = >1)
- combination index (CI) (SUDHL6; Compound 1 12.3 nM + Dexamethasone 111.1 nM): A (A = 0.0001 to <0.3)
- combination index (CI) (SUDHL6; Compound 1 12.3 nM + Dexamethasone 333.3 nM): A (A = 0.0001 to <0.3)
- combination index (CI) (SUDHL6; Compound 1 12.3 nM + Dexamethasone 1000 nM): A (A = 0.0001 to <0.3)
- combination index (CI) (SUDHL6; Compound 1 12.3 nM + Dexamethasone 3000 nM): A (A = 0.0001 to <0.3)
- combination index (CI) (SUDHL6; Compound 1 37 nM + Dexamethasone 1.4 nM): E (E = >1)
- combination index (CI) (SUDHL6; Compound 1 37 nM + Dexamethasone 4.1 nM): E (E = >1)
- combination index (CI) (SUDHL6; Compound 1 37 nM + Dexamethasone 12.3 nM): E (E = >1)
- combination index (CI) (SUDHL6; Compound 1 37 nM + Dexamethasone 37 nM): E (E = >1)
- combination index (CI) (SUDHL6; Compound 1 37 nM + Dexamethasone 111.1 nM): A (A = 0.0001 to <0.3)
- combination index (CI) (SUDHL6; Compound 1 37 nM + Dexamethasone 333.3 nM): A (A = 0.0001 to <0.3)
- combination index (CI) (SUDHL6; Compound 1 37 nM + Dexamethasone 1000 nM): A (A = 0.0001 to <0.3)
- combination index (CI) (SUDHL6; Compound 1 37 nM + Dexamethasone 3000 nM): A (A = 0.0001 to <0.3)
- combination index (CI) (SUDHL6; Compound 1 111.1 nM + Dexamethasone 1.4 nM): E (E = >1)
- combination index (CI) (SUDHL6; Compound 1 111.1 nM + Dexamethasone 4.1 nM): E (E = >1)
- combination index (CI) (SUDHL6; Compound 1 111.1 nM + Dexamethasone 12.3 nM): E (E = >1)
- combination index (CI) (SUDHL6; Compound 1 111.1 nM + Dexamethasone 37 nM): E (E = >1)
- combination index (CI) (SUDHL6; Compound 1 111.1 nM + Dexamethasone 111.1 nM): A (A = 0.0001 to <0.3)
- combination index (CI) (SUDHL6; Compound 1 111.1 nM + Dexamethasone 333.3 nM): A (A = 0.0001 to <0.3)
- combination index (CI) (SUDHL6; Compound 1 111.1 nM + Dexamethasone 1000 nM): A (A = 0.0001 to <0.3)
- combination index (CI) (SUDHL6; Compound 1 111.1 nM + Dexamethasone 3000 nM): A (A = 0.0001 to <0.3)
- combination index (CI) (SUDHL6; Compound 1 333.3 nM + Dexamethasone 1.4 nM): E (E = >1)
- combination index (CI) (SUDHL6; Compound 1 333.3 nM + Dexamethasone 4.1 nM): E (E = >1)
- combination index (CI) (SUDHL6; Compound 1 333.3 nM + Dexamethasone 12.3 nM): E (E = >1)
- combination index (CI) (SUDHL6; Compound 1 333.3 nM + Dexamethasone 37 nM): E (E = >1)
- combination index (CI) (SUDHL6; Compound 1 333.3 nM + Dexamethasone 111.1 nM): A (A = 0.0001 to <0.3)
- combination index (CI) (SUDHL6; Compound 1 333.3 nM + Dexamethasone 333.3 nM): A (A = 0.0001 to <0.3)
- combination index (CI) (SUDHL6; Compound 1 333.3 nM + Dexamethasone 1000 nM): A (A = 0.0001 to <0.3)
- combination index (CI) (SUDHL6; Compound 1 333.3 nM + Dexamethasone 3000 nM): A (A = 0.0001 to <0.3)
- combination index (CI) (SUDHL6; Compound 1 1000 nM + Dexamethasone 1.4 nM): E (E = >1)
- combination index (CI) (SUDHL6; Compound 1 1000 nM + Dexamethasone 4.1 nM): B (B = 0.3 to <0.5)
- combination index (CI) (SUDHL6; Compound 1 1000 nM + Dexamethasone 12.3 nM): E (E = >1)
- combination index (CI) (SUDHL6; Compound 1 1000 nM + Dexamethasone 37 nM): E (E = >1)
- combination index (CI) (SUDHL6; Compound 1 1000 nM + Dexamethasone 111.1 nM): A (A = 0.0001 to <0.3)
- combination index (CI) (SUDHL6; Compound 1 1000 nM + Dexamethasone 333.3 nM): A (A = 0.0001 to <0.3)
- combination index (CI) (SUDHL6; Compound 1 1000 nM + Dexamethasone 1000 nM): A (A = 0.0001 to <0.3)
- combination index (CI) (SUDHL6; Compound 1 1000 nM + Dexamethasone 3000 nM): A (A = 0.0001 to <0.3)
- combination index (CI) (SUDHL6; Compound 1 3000 nM + Dexamethasone 1.4 nM): A (A = 0.0001 to <0.3)
- combination index (CI) (SUDHL6; Compound 1 3000 nM + Dexamethasone 4.1 nM): A (A = 0.0001 to <0.3)
- combination index (CI) (SUDHL6; Compound 1 3000 nM + Dexamethasone 12.3 nM): A (A = 0.0001 to <0.3)
- combination index (CI) (SUDHL6; Compound 1 3000 nM + Dexamethasone 37 nM): A (A = 0.0001 to <0.3)
- combination index (CI) (SUDHL6; Compound 1 3000 nM + Dexamethasone 111.1 nM): A (A = 0.0001 to <0.3)
- combination index (CI) (SUDHL6; Compound 1 3000 nM + Dexamethasone 333.3 nM): A (A = 0.0001 to <0.3)
- combination index (CI) (SUDHL6; Compound 1 3000 nM + Dexamethasone 1000 nM): A (A = 0.0001 to <0.3)
- combination index (CI) (SUDHL6; Compound 1 3000 nM + Dexamethasone 3000 nM): A (A = 0.0001 to <0.3)
- CI50 growth inhibition (DOHH-2; combination with Dexamethasone): S (S=0.01 to <0.5)
- CI50 inhibition (DOHH-2; combination with Dexamethasone): S (S=0.01 to <0.5)
- Synergy Score growth inhibition (DOHH-2; combination with Dexamethasone): A3 (A3=>3)
- Synergy Score inhibition (DOHH-2; combination with Dexamethasone): A3 (A3=>3)
- CI50 growth inhibition (DOHH-2; combination with LEE011): T (T=0.5 to <0.7)
- CI50 inhibition (DOHH-2; combination with LEE011): U (U=0.7 to <1)
- Synergy Score growth inhibition (DOHH-2; combination with LEE011): A3 (A3=>3)
- Synergy Score inhibition (DOHH-2; combination with LEE011): A2 (A2=1 to <3)
- CI50 growth inhibition (DOHH-2; combination with PCI-32765): S (S=0.01 to <0.5)
- CI50 inhibition (DOHH-2; combination with PCI-32765): S (S=0.01 to <0.5)
- Synergy Score growth inhibition (DOHH-2; combination with PCI-32765): A3 (A3=>3)
- Synergy Score inhibition (DOHH-2; combination with PCI-32765): A3 (A3=>3)
- CI50 growth inhibition (DOHH-2; combination with PD-0332991): U (U=0.7 to <1)
- CI50 inhibition (DOHH-2; combination with PD-0332991): U (U=0.7 to <1)
- Synergy Score growth inhibition (DOHH-2; combination with PD-0332991): A3 (A3=>3)
- Synergy Score inhibition (DOHH-2; combination with PD-0332991): A2 (A2=1 to <3)
